Reference: patent publication US20260285853A1, “COMPOUNDS AND METHODS FOR MODULATING SPLICING” (REMIX THERAPEUTICS INC., priority 2023, published 2026)
Like-named read-outs stand apart in the source and are kept apart here.

Experiments:
Format in all cases: cell-based
MYB mRNA [1] = experiment: Splicing RT-qPCR assay (THP), Table 2A
MYB mRNA [2] = experiment: Gene panel canonical junction qPCR assay, decrease in CJ mRNA, Table 3
Procedure, shortened: (§1)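 Eleven-point dose responses from 10 uM final, 24 h, DMSO ≤0.25%, in A673 or K562 cells. Relative quantification by 2^(−ΔΔCt) against housekeeper and vehicle was converted to percent response over fixed ΔCt windows and fitted to yield IC50.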

HTT mRNA [3] = experiment: as above
Procedure, shortened: as §1

HTT mRNA [4] = experiment: Splicing RT-qPCR assay (THP), Table 2A
[5] = system: SH-SY5Y (human neuroblastoma) cells; experiment: Cell viability, Cell Titer Glo 2.0 assay; details: read-out: Viability SHSY5Y.3 GI50
Procedure, shortened: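 Following a 72 h incubation (37 °C, 5% CO2, 0.1% DMSO final), compound toxicity toward SH-SY5Y cells was quantified by CellTiter-Glo 2.0.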

[6] = Table 2A (THP), AJ mRNA increase, read-out: MYB AJ (increase in alternative junction mRNA, AC50)
[7] = Table 2A (THP), CJ mRNA decrease, read-out: MYB CJ (decrease in canonical junction mRNA, IC50)
[8] = decrease in canonical junction (CJ) mRNA, gene panel qPCR, Table 3
[9] = Table 2A (THP), AJ mRNA increase, read-out: HTT AJ (increase in alternative junction mRNA, AC50)
[10] = Table 2A (THP), CJ mRNA decrease, read-out: HTT CJ (decrease in canonical junction mRNA, IC50)
[11] = Table 2A, THP, MYB alternative junction (AJ) mRNA, read-out: MYB AJ (AC50, increase in alternative junction mRNA)
[12] = Table 2A, THP, MYB canonical junction (CJ) mRNA, read-out: MYB CJ (IC50, decrease in canonical junction mRNA)
[13] = decrease in CJ mRNA levels, canonical junction qPCR, gene panel
[14] = Table 2A, THP, HTT alternative junction (AJ) mRNA, read-out: HTT AJ (AC50, increase in alternative junction mRNA)
[15] = Table 2A, THP, HTT canonical junction (CJ) mRNA, read-out: HTT CJ (IC50, decrease in canonical junction mRNA)

Question: `CCNC1CCN(c2ccc(C(=O)Nc3cc(CC(=O)O)c4nc(C)cn4c3)c3nn(C)cc23)CC1` [Compound 339, 2-[6-[[4-[4-(ethylamino)-1-piperidyl]-2-methyl-indazole-7-carbonyl]amino]-2-methyl-imidazo[1,2-a]-pyridin-8-yl]acetic acid] was tested. Which AC50 (MYB mRNA [1]; [6]) did it give?
Answer: Its AC50 is 0.1 to 1 µM.

Question: And the IC50 (MYB mRNA [1]; [7])?
Answer: Its IC50 is 0.1 to 1 µM.

Question: What about the IC50 (MYB mRNA [2]; [8]) of the same molecule?
Answer: Its IC50 is 0.1 to 1 µM.

Question: And the IC50 (HTT mRNA [3]; [8])?
Answer: Its IC50 is 0.1 to 1 µM.

Question: And the AC50 (HTT mRNA [4]; [9])?
Answer: The AC50 was 0.1 to 1 µM.

Question: What about the IC50 (HTT mRNA [4]; [10]) of the same molecule?
Answer: Its IC50 is 0.1 to 1 µM.

Question: And the GI50 [5]?
Answer: The GI50 was 0.1 to 1 µM.

Question: How did the AC50 (MYB mRNA [1]; [6]) turn out when `CNC1CCN(c2ccc(C(=O)Nc3cn4cc(C)nc(C)c4n3)c3nn(C)cc23)C1` (stereo not shown) [Compound 505] was run?
Answer: The AC50 was 0.1 to 1 µM.

Question: And the IC50 (MYB mRNA [1]; [7])?
Answer: Its IC50 is 0.1 to 1 µM.

Question: And the IC50 (MYB mRNA [2]; [8])?
Answer: The IC50 was 0.1 to 1 µM.

Question: What about the IC50 (HTT mRNA [3]; [8]) of the same molecule?
Answer: The IC50 was 0.1 to 1 µM.

Question: What about the AC50 (HTT mRNA [4]; [9]) of the same molecule?
Answer: Its AC50 is 0.1 to 1 µM.

Question: And the IC50 (HTT mRNA [4]; [10])?
Answer: Its IC50 is 0.1 to 1 µM.

Question: And the GI50 [5]?
Answer: Its GI50 is 0.1 to 1 µM.

Question: How did the AC50 (MYB mRNA [1]; [11]) turn out when `Cc1cn2cc(NC(=O)c3ccc(N4C[C@@H](C)N[C@@H](C)C4)c4c3OC(C)(C)O4)cc(F)c2n1` [Compound 656, 7-[(3S,5R)-3,5-dimethylpiperazin-1-yl]-N-(8-fluoro-2-methyl-imidazo[1,2-a]-pyridin-6-yl)-2,2-dimethyl-1,3-benzodioxole-4-carboxamide] was run?
Answer: Its AC50 is > 10 µM.

Question: What about the IC50 (MYB mRNA [1]; [12]) of the same molecule?
Answer: The IC50 was > 10 µM.

Question: What about the IC50 (MYB mRNA [2]; [13]) of the same molecule?
Answer: The IC50 was > 10 µM.

Question: What about the IC50 (HTT mRNA [3]; [13]) of the same molecule?
Answer: Its IC50 is > 10 µM.

Question: And the AC50 (HTT mRNA [4]; [14])?
Answer: The AC50 was > 10 µM.

Question: And the IC50 (HTT mRNA [4]; [15])?
Answer: The IC50 was > 10 µM.

Question: And the GI50 [5]?
Answer: The GI50 was > 10 µM.

Question: `Cn1cc2cc(NC(=O)c3c(F)cc(N4CCC(NC5CC5)CC4)c4cn(C)nc34)c(F)cc2n1` [Compound 422, 4-[4-(cyclopropylamino)-1-piperidy1]-6-fluoro-N-(6-fluoro-2-methyl-indazol-5-yl)-2-methyl-indazole-7-carboxamide] was tested. Which AC50 (MYB mRNA [1]; [6]) did it give?
Answer: Its AC50 is < 0.1 µM.

Question: What about the IC50 (MYB mRNA [1]; [7]) of the same molecule?
Answer: Its IC50 is < 0.1 µM.

Question: What about the IC50 (MYB mRNA [2]; [8]) of the same molecule?
Answer: Its IC50 is < 0.1 µM.

Question: What about the IC50 (HTT mRNA [3]; [8]) of the same molecule?
Answer: Its IC50 is 0.1 to 1 µM.

Question: And the AC50 (HTT mRNA [4]; [9])?
Answer: The AC50 was 0.1 to 1 µM.

Question: What about the IC50 (HTT mRNA [4]; [10]) of the same molecule?
Answer: The IC50 was 0.1 to 1 µM.

Question: What about the GI50 [5] of the same molecule?
Answer: The GI50 was 0.1 to 1 µM.

Question: `Cn1cc2c(N3CCC(NC4CC4)CC3)cc(F)c(C(=O)Nc3cccnc3O)c2n1` [Compound 411, 4-[4-(cyclopropylamino)-1-piperidyl]-6-fluoro-N-(2-hydroxy-3-pyridyl)-2-methyl-indazole-7-carboxamide] was tested. Which AC50 (MYB mRNA [1]; [6]) did it give?
Answer: Its AC50 is > 10 µM.

Question: And the IC50 (MYB mRNA [1]; [7])?
Answer: Its IC50 is > 10 µM.

Question: And the IC50 (MYB mRNA [2]; [8])?
Answer: Its IC50 is > 10 µM.

Question: What about the IC50 (HTT mRNA [3]; [8]) of the same molecule?
Answer: Its IC50 is 1 to 10 µM.

Question: What about the AC50 (HTT mRNA [4]; [9]) of the same molecule?
Answer: Its AC50 is > 10 µM.

Question: And the IC50 (HTT mRNA [4]; [10])?
Answer: The IC50 was 1 to 10 µM.

Question: And the GI50 [5]?
Answer: Its GI50 is > 10 µM.

Question: For `COc1cn2nc(C)cc2cc1NC(=O)c1c(F)cc(N2CCC(NC3CC3)CC2)c2cn(C)nc12` [Compound 432, 4-[4-(cyclopropylamino)-1-piperidyl]-6-fluoro-N-(6-methoxy-2-methyl-pyrazolo[1,5-a]pyridin-5-yl)-2-methyl-indazole-7-carboxamide], which AC50 (MYB mRNA [1]; [6]) is on record?
Answer: The AC50 was < 0.1 µM.

Question: And the IC50 (MYB mRNA [1]; [7])?
Answer: The IC50 was < 0.1 µM.

Question: And the IC50 (MYB mRNA [2]; [8])?
Answer: The IC50 was < 0.1 µM.

Question: What about the IC50 (HTT mRNA [3]; [8]) of the same molecule?
Answer: The IC50 was 0.1 to 1 µM.

Question: And the AC50 (HTT mRNA [4]; [9])?
Answer: Its AC50 is 0.1 to 1 µM.

Question: And the IC50 (HTT mRNA [4]; [10])?
Answer: The IC50 was 0.1 to 1 µM.

Question: What about the GI50 [5] of the same molecule?
Answer: The GI50 was < 0.1 µM.

Question: With `CCNC1CCN(c2ccc(C(=O)Nc3cc(Oc4ccccc4Cl)c4nc(C)cn4c3)c3nn(C)cc23)CC1` [Compound 313, N-[8-(2-chlorophenoxy)-2-methylimidazo-[1,2-a]pyridin-6-yl]-4-[4-(ethylamino)-1-piperidyl]-2-methyl-indazole-7-carboxamide] as the molecule, how does the AC50 (MYB mRNA [1]; [6]) read?
Answer: Its AC50 is 1 to 10 µM.

Question: What about the IC50 (MYB mRNA [1]; [7]) of the same molecule?
Answer: The IC50 was > 10 µM.

Question: And the IC50 (MYB mRNA [2]; [8])?
Answer: Its IC50 is > 10 µM.

Question: What about the IC50 (HTT mRNA [3]; [8]) of the same molecule?
Answer: The IC50 was > 10 µM.

Question: What about the AC50 (HTT mRNA [4]; [9]) of the same molecule?
Answer: The AC50 was > 10 µM.

Question: What about the IC50 (HTT mRNA [4]; [10]) of the same molecule?
Answer: Its IC50 is > 10 µM.

Question: And the GI50 [5]?
Answer: Its GI50 is 1 to 10 µM.

Question: How did the AC50 (MYB mRNA [1]; [11]) turn out when `CCNC1CCN(c2ccc(C(=O)Nc3cc(CS(=O)(=O)N(C)C)c4nn(C)cc4c3)c3nn(C)cc23)CC1` [Compound 874] was run?
Answer: Its AC50 is > 10 µM.

Question: What about the IC50 (MYB mRNA [1]; [12]) of the same molecule?
Answer: Its IC50 is > 10 µM.

Question: What about the IC50 (MYB mRNA [2]; [13]) of the same molecule?
Answer: Its IC50 is > 10 µM.

Question: What about the IC50 (HTT mRNA [3]; [13]) of the same molecule?
Answer: Its IC50 is > 10 µM.

Question: What about the AC50 (HTT mRNA [4]; [14]) of the same molecule?
Answer: The AC50 was > 10 µM.

Question: And the IC50 (HTT mRNA [4]; [15])?
Answer: Its IC50 is > 10 µM.

Question: What about the GI50 [5] of the same molecule?
Answer: The GI50 was > 10 µM.

Question: What does the source list for `COc1nc2c(C(=O)Nc3cc(F)c4nn(C)cc4c3)ccc(N3C[C@@H](C)NC4(CC4)C3)c2s1` [Compound 788]?
Answer: AC50 (MYB mRNA [1]; [11]): < 0.1 µM; IC50 (MYB mRNA [1]; [12]): 0.1 to 1 µM; IC50 (MYB mRNA [2]; [13]): 0.1 to 1 µM; IC50 (HTT mRNA [3]; [13]): > 10 µM; AC50 (HTT mRNA [4]; [14]): > 10 µM; IC50 (HTT mRNA [4]; [15]): > 10 µM; GI50 [5]: 1 to 10 µM

Question: For `CCNC1CCN(c2ccc(C(=O)Nc3cn4cc(C)nc(CC(=O)NC)c4n3)c3nn(C)cc23)CC1` [Compound 872, 4-[4-(ethylamino)-1-piperidyl]-2-methyl-N-[6-methyl-8-[2-(methylamino)-2-oxo-ethyl]imidazo[1,2-a]pyrazin-2-yl]indazole-7-carboxamide], which AC50 (MYB mRNA [1]; [11]) is on record?
Answer: Its AC50 is > 10 µM.

Question: What about the IC50 (MYB mRNA [1]; [12]) of the same molecule?
Answer: Its IC50 is > 10 µM.

Question: And the IC50 (MYB mRNA [2]; [13])?
Answer: The IC50 was > 10 µM.

Question: What about the IC50 (HTT mRNA [3]; [13]) of the same molecule?
Answer: The IC50 was > 10 µM.

Question: What about the AC50 (HTT mRNA [4]; [14]) of the same molecule?
Answer: The AC50 was > 10 µM.

Question: And the IC50 (HTT mRNA [4]; [15])?
Answer: Its IC50 is > 10 µM.

Question: And the GI50 [5]?
Answer: Its GI50 is > 10 µM.
